Laboratory results reported in patent publication US8163793B2, “Proline derivatives” (Hoffman-La Roche Inc., priority 2009, dated 2012).

Legend:
Cathepsin S = Cathepsin S (UniProt P25774); assay: Cathepsin enzyme inhibition assay (fluorogenic peptide substrate Z-Val-Val-Arg-AMC), Cathepsin S; type: biochemical, human and mouse; details: enzyme 1 nM, substrate 20 μM, pH 6.5; read-out: CatS IC50
Method in brief: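 Compounds were combined with 1 nM human or mouse enzyme, and substrate then started the reaction. The buffer was potassium phosphate (100 mM, pH 6.5) containing EDTA-Na 5 mM, Triton X-100 0.001% and […] 5 mM.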

Cat L = Cat L (UniProt P07711); assay: Cathepsin enzyme inhibition assay (fluorogenic peptide substrate Z-Val-Val-Arg-AMC), Cathepsin L; type: biochemical, human and mouse; details: for IC50: enzyme 1 nM, substrate 20 μM, pH 6.5, read-out: CatL IC50
Method in brief: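 Fluorogenic cleavage of Z-Val-Val-Arg-AMC (20 μM) by 1 nM Cat L was monitored at ex 360/em 465 nm for 20 min, the linear phase. The buffer was 100 mM potassium phosphate pH 6.5 with 5 mM EDTA and DTT. IC50 values were derived by standard methods, in μM.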

Row | Structure (SMILES) | IC50 (Cathepsin S) [nM] | IC50 (Cat L) [nM] | CatL, % @25 uM (Cat L; @25 uM compound) [% @25 uM]
1 | CC(C)N1CCN(c2ccc(S(=O)(=O)[C@@H]3C[C@@H](C(=O)NC4(C#N)CC4)N(C(=O)C4(c5ccc(Cl)nc5)CC4)C3)c(Cl)c2)CC1 [Example 370, (2S,4R)-4-[2-Chloro-4-(4-isopropyl-piperazin-1-yl)-benzenesulfonyl]-1-[1-(6-chloro-pyridin-3-yl)-cyclopropanecarbonyl]-pyrrolidine-2-carboxylic acid (1-cyano-cyclopropyl)-amide; Compound with Formic Acid] | 0.07 | 21.7 | –
2 | CC(Oc1ccc(S(=O)(=O)[C@@H]2C[C@@H](C(=O)NC3(C#N)CC3)N(C(=O)C3(C(F)(F)F)CC3)C2)c(Cl)c1)C(F)(F)F (stereo partly drawn) [Example 149, (2S,4R)-4-[2-Chloro-4-(2,2,2-trifluoro-1-methyl-ethoxy)-benzenesulfonyl]-1-(1-trifluoromethyl-cyclopropanecarbonyl)-pyrrolidine-2-carboxylic acid (1-cyano-cyclopropyl)-amide] | 0.7 | 8100 | –
3 | N#CC1(NC(=O)[C@@H]2C[C@@H](S(=O)(=O)c3ccc(N4CCn5cnnc5C4)cc3Cl)CN2C(=O)C2(C(F)(F)F)CC2)CC1 [Example 301, (2S,4R)-4-[2-Chloro-4-(5,6-dihydro-8H-[1,2,4]triazolo[4,3-a]pyrazin-7-yl)-benzenesulfonyl]-1-(1-trifluoromethyl-cyclopropanecarbonyl)-pyrrolidine-2-carboxylic acid (1-cyano-cyclopropyl)-amide] | 0.12 | 1540 | –
4 | Cc1cc(N2C[C@H](S(=O)(=O)c3ccccc3C(F)(F)F)C[C@H]2C(=O)NC2(C#N)CC2)n(-c2ccn(C(=O)OCC(C)C)c(=O)c2)n1 [Example 231, 4-{5-[(2S,4R)-2-(1-Cyano-cyclopropylcarbamoyl)-4-(2-trifluoromethyl-benzenesulfonyl)-pyrrolidin-1-yl]-3-methyl-pyrazol-1-yl}-2-oxo-2H-pyridine-1-carboxylic acid Isobutyl ester] | 0.5 | > 25000 | –
5 | CCN1CCN(c2ccc(S(=O)(=O)[C@@H]3C[C@@H](C(=O)NC4(C#N)CC4)N(C(=O)C4(C(F)(F)F)CC4)C3)c(Cl)c2)CC1 [Example 141, (2S,4R)-4-[2-Chloro-4-(4-ethyl-piperazin-1-yl)-benzenesulfonyl]-1-(1-trifluoromethyl-cyclopropanecarbonyl)-pyrrolidine-2-carboxylic acid (1-cyano-cyclopropyl)-amide] | 0.6 | 3460 | –
6 | N#CC1(NC(=O)[C@@H]2C[C@@H](S(=O)(=O)c3ccccc3C(F)(F)F)CN2C(=O)C(F)(F)F)CC1 [Example 102, (2S,4R)-1-(2,2,2-Trifluoro-acetyl)-4-(2-trifluoromethyl-benzenesulfonyl)-pyrrolidine-2-carboxylic acid (1-cyano-cyclopropyl)-amide] | 3.6 | ≥ 25000 | –
7 | Cc1cc(N2C[C@H](S(=O)(=O)CC3CC3)C[C@H]2C(=O)NC2(C#N)CC2)n(CCc2ccccc2)n1 [Example 470, (2S,4R)-4-Cyclopropylmethanesulfonyl-1-(5-methyl-2-phenethyl-2H-pyrazol-3-yl)-pyrrolidine-2-carboxylic acid (1-cyano-cyclopropyl)-amide] | 2790 | – | 94
8 | N#CC1(NC(=O)[C@@H]2C[C@@H](S(=O)(=O)c3ccc(F)cc3Cl)CN2C(=O)C2(c3ccc(Cl)nc3)CC2)CC1 [Example 368, (2S,4R)-4-(2-Chloro-4-fluoro-benzenesulfonyl)-1-[1-(6-chloro-pyridin-3-yl)-cyclopropanecarbonyl]-pyrrolidine-2-carboxylic acid (1-cyano-cyclopropyl)-amide] | 0.21 | 267 | –
9 | N#CC1(NC(=O)[C@@H]2C[C@@H](S(=O)(=O)c3ccc(N4CCC(C(F)(F)F)CC4)cc3Cl)CN2)CC1 [Example 154, (2S,4R)-4-[2-Chloro-4-(4-trifluoromethyl-piperidin-1-yl)-benzenesulfonyl]-pyrrolidine-2-carboxylic acid (1-cyano-cyclopropyl)-amide] | 1.8 | 6630 | –
10 | COc1cccc(-n2nc(C)cc2N2C[C@H](S(=O)(=O)c3ccccc3C(F)(F)F)C[C@H]2C(=O)NC2(C#N)CC2)c1 [Example 333, (2S,4R)-1-[2-(3-Methoxy-phenyl)-5-methyl-2H-pyrazol-3-yl]-4-(2-trifluoromethyl-benzenesulfonyl)-pyrrolidine-2-carboxylic acid (1-cyano-cyclopropyl)-amide] | 1.9 | 7980 | –

Other lines, results leading:

Row | IC50 (Cathepsin S) [nM] | IC50 (Cat L) [nM] | CatL, % @25 uM (Cat L; @25 uM compound) [% @25 uM] | Structure (SMILES)
11 | 0.29 | 1250 | – | N#CC1(NC(=O)[C@@H]2C[C@@H](S(=O)(=O)c3ccc(OCC(F)(F)F)cc3Cl)CN2C(=O)C(F)(F)c2ccccc2)CC1 [Example 251, (2S,4R)-4-[2-Chloro-4-(2,2,2-trifluoro-ethoxy)-benzenesulfonyl]-1-(2,2-difluoro-2-phenyl-acetyl)-pyrrolidine-2-carboxylic acid (1-cyano-cyclopropyl)-amide]
12 | 0.47 | 45 | – | N#CC1(NC(=O)[C@@H]2C[C@@H](S(=O)(=O)c3ccccc3Cl)CN2C(=O)C2(c3ccc(Br)cc3)CC2)CC1 [Example 426, (2S,4R)-1-(1-(4-bromophenyl)cyclopropanecarbonyl)-4-(2-chlorophenylsulfonyl)-N-(1-cyanocyclopropyl)pyrrolidine-2-carboxamide]
13 | 0.392 | 9430 | – | Cc1cccc(-n2nc(C)cc2N2C[C@H](S(=O)(=O)c3ccccc3C(F)(F)F)C[C@H]2C(=O)NC2(C#N)CC2)c1 [Example 276, (2S,4R)-1-(5-Methyl-2-m-tolyl-2H-pyrazol-3-yl)-4-(2-trifluoromethyl-benzenesulfonyl)-pyrrolidine-2-carboxylic acid (1-cyano-cyclopropyl)-amide]
14 | 380 | ≥ 25000 | – | N#CC1(NC(=O)C2CC(S(=O)(=O)c3ccccc3C(F)(F)F)CN2C2CCOCC2)CC1 (centres unmarked) [Example 362, 1-(Tetrahydro-pyran-4-yl)-4-(2-trifluoromethyl-benzenesulfonyl)-pyrrolidine-2-carboxylic acid (1-cyano-cyclopropyl)-amide]
15 | 0.98 | 35800 | – | CC(C)(C)C(=O)N1C[C@H](S(=O)(=O)c2ccc(OCC(F)(F)F)cc2Cl)C[C@H]1C(=O)NC1(C#N)CC1 [Example 176, (2S,4R)-4-[2-Chloro-4-(2,2,2-trifluoro-ethoxy)-benzenesulfonyl]-1-(2,2-dimethyl-propionyl)-pyrrolidine-2-carboxylic acid (1-cyano-cyclopropyl)-amide]
16 | 0.6 | ≥ 25000 | – | Cc1ccc(C(=O)N2C[C@H](S(=O)(=O)c3ccccc3C(F)(F)F)C[C@H]2C(=O)NCC#N)cc1 [Example 66, (2S,4R)-1-(4-Methyl-benzoyl)-4-(2-trifluoromethyl-benzenesulfonyl)-pyrrolidine-2-carboxylic acid cyanomethyl-amide]
17 | 0.47 | 21400 | – | CC(C)CC(=O)N1C[C@H](S(=O)(=O)c2ccc(OCC(F)(F)F)cc2Cl)C[C@H]1C(=O)NC1(C#N)CC1 [Example 180, (2S,4R)-4-[2-Chloro-4-(2,2,2-trifluoro-ethoxy)-benzenesulfonyl]-1-(3-methyl-butyryl)-pyrrolidine-2-carboxylic acid (1-cyano-cyclopropyl)-amide]
18 | 3.6 | ≥ 25000 | – | Cc1cc(N2C[C@H](S(=O)(=O)c3ccccc3C(F)(F)F)C[C@H]2C(=O)NC2(C#N)CC2)n(-c2ccc(F)cc2)n1 [Example 195, (2S,4R)-1-[2-(4-Fluoro-phenyl)-5-methyl-2H-pyrazol-3-yl]-4-(2-trifluoromethyl-benzenesulfonyl)-pyrrolidine-2-carboxylic acid (1-cyano-cyclopropyl)-amide]
19 | 0.2 | ≥ 25000 | – | N#CC1(NC(=O)[C@@H]2C[C@@H](S(=O)(=O)c3ccc(F)cc3C(F)(F)F)CN2C(=O)C2(C(F)(F)F)CC2)CC1 [Example 209, (2S,4R)-4-(4-Fluoro-2-trifluoromethyl-benzenesulfonyl)-1-(1-trifluoromethyl-cyclopropanecarbonyl)-pyrrolidine-2-carboxylic acid (1-cyano-cyclopropyl)-amide]
20 | 0.155 | 745 | – | N#CC1(NC(=O)[C@@H]2C[C@@H](S(=O)(=O)c3ccc(OCC(F)(F)F)cc3Cl)CN2C(=O)C2(c3cccc(C(F)(F)F)c3)CC2)CC1 [Example 311, (2S,4R)-4-[2-Chloro-4-(2,2,2-trifluoro-ethoxy)-benzenesulfonyl]-1-[1-(3-trifluoromethyl-phenyl)-cyclopropanecarbonyl]-pyrrolidine-2-carboxylic acid (1-cyano-cyclopropyl)-amide]
21 | 0.08 | 3480 | – | Cn1cc(-c2ccc(C3(C(=O)N4C[C@H](S(=O)(=O)c5ccc(OCC(F)(F)F)cc5Cl)C[C@H]4C(=O)NC4(C#N)CC4)CC3)cc2)cn1 [Example 288, (2S,4R)-4-[2-Chloro-4-(2,2,2-trifluoro-ethoxy)-benzenesulfonyl]-1-{1-[4-(1-methyl-1H-pyrazol-4-yl)-phenyl]-cyclopropanecarbonyl}-pyrrolidine-2-carboxylic acid (1-cyano-cyclopropyl)-amide]
22 | 0.9 | 19000 | – | C[C@H](Oc1ccc(S(=O)(=O)[C@@H]2C[C@@H](C(=O)NC3(C#N)CC3)N(C(=O)C3CC3)C2)c(Cl)c1)C(F)(F)F [Example 197, (2S,4R)-4-[2-Chloro-4-((S)-2,2,2-trifluoro-1-methyl-ethoxy)-benzenesulfonyl]-1-cyclopropanecarbonyl-pyrrolidine-2-carboxylic acid (1-cyano-cyclopropyl)-amide]
